Bridge positions count the residues as written; N and C are the ends. Peptide text beside a SMILES is read from it.

The values below come from PMC11637438, “Chickpea NCR13 disulfide cross-linking variants exhibit profound differences in antifungal activity and modes of action” (PLOS Pathogens, 2024).

In series [1] the test system is Fusarium virguliforme. Kind of series: In vitro antifungal assay, resazurin cell viability (MIC). It counts as cell-based. To be noted: resazurin assay in SFM, ~10^5 spores/mL. How it is done: (§1) B. cinerea strain T4 was cultured in V8 medium for 3 weeks at 25°C. Fungal spores were collected by flooding the fungal growth plates with water and scraped using a sterile spreader. The spore suspension was filtered through two layers of Miracloth, followed by centrifugation at 12,000 g for 2 minutes (min) and subsequently washed twice with sterile water. Lastly, fungal spores were resuspended in Synthetic Fungal Media (SFM). The spore suspension was adjusted to the desired spore density of about 10^5 spores/mL using a hemocytometer. Fusarium virguliforme (F. virguliforme) was grown and maintained regularly in potato dextrose agar (PDA) (Difco Laboratories) medium. Two weeks old F. virguliforme plates were used to collect spores as described above for B. cinerea followed by centrifugation and washing steps. Spores were counted using a hemocytometer and adjusted to the final concentration of 10^5 spores/mL in 2X SFM media. Sclerotinia sclerotiorum obtained from the field of pennycress in Illinois was grown on PDA medium at room temperature.
(§2) The antifungal activity of NCR13 against fungal pathogens was determined using the resazurin cell viability assay, as described previously. […] The in vitro antifungal activity of NCR13_PFVs against S. sclerotiorum was determined using a 24-well plate assay as previously described. […]
For orientation: The colour change of resazurin is a common sign of viable cells or microbes.

Series [2] has as its system trypsin. To be noted: 20-fold less (in mass) trypsin, room temperature, 1 h, read-out mass spectrometry.
Series [3] concerns Sclerotinia sclerotiorum. Kind of series: In vitro antifungal assay, 24-well plate with mycelial plugs (MIC). It counts as cell-based. To be noted: mycelial plugs in 250 μL SFM. How it is done: as §1, §2
Series [4] relates to B. cinerea. The format is in vivo, Botrytis cinerea on tomato (Solanum lycopersicum). To be noted: 3 μM peptide sprayed on pre-inoculated four-week-old tomato plants; 5 leaves per plant, 4 plants. The protocol: To test the curative antifungal activity of peptides against B. cinerea, 4-week-old pepper and tomato plants were used. Plants were first sprayed with 1 mL of B. cinerea spores (about 5 × 10^4) suspended in SFM. After 8 h of B. cinerea challenge, 2 mL of NCR13_PFV1 or NCR13_PFV2 (3.0 and 1.5 μM) were sprayed per plant. Control plants were sprayed with 2 mL of water. All plants were placed in a high humid environment for 72 h. Plants were imaged at 72 h after infection in white light and high-resolution fluorescence images were taken using CropReporter (PhenoVation). The quantification of plant health was carried out using the calculated Fv/Fm (maximum quantum yield of photosystem II) images of CropReporter showing the efficiency of photosynthesis in false colors.
For the curative assay using pepper and tomato plants, pictures of whole plants and detached leaves were taken as described above. […] Four plants were used per treatment and for each plant the disease was assessed per leaf. Besides disease severity (DS), the inhibition of disease by treatment was also evaluated. […]

For series [5], the system named is B. cinerea. The format is cell-based, Botrytis cinerea. Particulars: B. cinerea; for Minimal Inhibitory Concentration (MIC): resazurin assay in SFM, ~10^5 spores/mL, resazurin added after 48 h, three biological replicates. How it is done:
as §1
The antifungal activity of NCR13 against fungal pathogens was determined using the resazurin cell viability assay, as described previously. Briefly, 45 μL of each peptide dilution (0, 0.09, 0.1875, 0.375, 0.75, 1.5, 3, and 6 μM) was added to each well of the microtiter plate containing 45 μL (~10^5 spores/mL) of spore suspension. Three biological replicates were used for each treatment and the experiments were repeated three times. Resazurin at 0.1% (w/v) was added to each well after incubation for 48 h. Images were taken at ~24 h. The Minimum Inhibitory Concentration (MIC) for each peptide denotes the lowest concentration at which the peptide halts the growth of fungus evident through a lack of color change from blue to […]. The in vitro antifungal activity of NCR13_PFVs against S. sclerotiorum was determined using a 24-well plate assay as previously described. Mycelial plugs (1 mm in diameter) cut from the growing edge of the two day-old actively growing colony were transferred from PDA media to a series of wells containing 250 μL of SFM.

For the molecule `CC[C@H](C)[C@@H]1NC(=O)[C@@H]2CSSC[C@H](NC(=O)[C@@H]3CCCN3C(=O)[C@H](CCCCN)NC(=O)[C@@H](NC(=O)[C@H](C)N)[C@@H](C)O)C(=O)N[C@@H](CCC(N)=O)C(=O)N[C@@H](CO)C(=O)N[C@@H](CC(=O)O)C(=O)N[C@@H](CCCCN)C(=O)N[C@@H](CC(=O)O)C(=O)N[C@H]3CSSC[C@H](NC(=O)[C@H](Cc4ccccc4)NC(=O)CNC(=O)[C@H](CC(N)=O)NC1=O)C(=O)N[C@@H](CCCCN)C(=O)N[C@H](C(=O)N[C@H](C(=O)N[C@@H](CCCNC(=N)N)C(=O)O)C(C)C)CSSC[C@H](NC(=O)[C@H](C)NC(=O)[C@H](Cc1ccccc1)NC(=O)[C@H](CCCCN)NC(=O)[C@H](CCCCN)NC3=O)C(=O)N[C@@H](CCCNC(=N)N)C(=O)N[C@@H](CCCCN)C(=O)N1CCC[C@H]1C(=O)N[C@@H](CCCCN)C(=O)N[C@@H](C(C)C)C(=O)N1CCC[C@H]1C(=O)N[C@@H](CCCCN)C(=O)N2` [NCR13_PFV1] (H-ATKPCQSDKDCKKFACRKPKVPKCINGFCKCVR-OH; disulfide 5-24, 11-29, 16-31), the figures for the “Minimal Inhibitory Concentration (MIC)” value in series [1], in series [3] and in series [5] were 0.09 µM, 6.0 µM and 0.09 µM, respectively. The digestion by trypsin result in series [2] is reported as “could not be digested by trypsin”. In addition, the “inhibition of gray mold disease, tomato” value in series [4] is 90%. The “MIC in SFM+100 mM NaCl” value in series [5] (synthetic fungal medium plus 100 mM NaCl) was above 12 µM.
`CC[C@H](C)[C@@H]1NC(=O)[C@@H]2CSSC[C@H](NC(=O)[C@H](Cc3ccccc3)NC(=O)CNC(=O)[C@H](CC(N)=O)NC1=O)C(=O)N[C@@H](CCCCN)C(=O)N[C@H](C(=O)N[C@H](C(=O)N[C@@H](CCCNC(=N)N)C(=O)O)C(C)C)CSSC[C@H](NC(=O)[C@H](C)NC(=O)[C@H](Cc1ccccc1)NC(=O)[C@H](CCCCN)NC(=O)[C@H](CCCCN)NC(=O)[C@@H]1CSSC[C@H](NC(=O)[C@@H]3CCCN3C(=O)[C@H](CCCCN)NC(=O)[C@@H](NC(=O)[C@H](C)N)[C@@H](C)O)C(=O)N[C@@H](CCC(N)=O)C(=O)N[C@@H](CO)C(=O)N[C@@H](CC(=O)O)C(=O)N[C@@H](CCCCN)C(=O)N[C@@H](CC(=O)O)C(=O)N1)C(=O)N[C@@H](CCCNC(=N)N)C(=O)N[C@@H](CCCCN)C(=O)N1CCC[C@H]1C(=O)N[C@@H](CCCCN)C(=O)N[C@@H](C(C)C)C(=O)N1CCC[C@H]1C(=O)N[C@@H](CCCCN)C(=O)N2` [NCR13_PFV2] (H-ATKPCQSDKDCKKFACRKPKVPKCINGFCKCVR-OH; disulfide 5-11, 16-31, 24-29): the “Minimal Inhibitory Concentration (MIC)” value in series [1] was 1.5 µM; in series [3], 24 µM; in series [5], 1.5 µM. For the same molecule, in series [4], the “inhibition of gray mold disease, tomato” value is recorded as 40%.
